# Experimental data from patent publication US20180298405A1, “METHODS AND COMPOSITIONS TO INCREASE HUMAN SOMATIC CELL NUCLEAR TRANSFER (SCNT) EFFICIENCY BY REMOVING HISTONE H3-LYSINE TRIMETHYLATION, AND DERIVATION OF HUMAN NT-ESC” (CHILDREN'S MEDICAL CENTER CORPORATION, priority 2015, published 2018).
# System: reprogramming resistant regions (RRRs) / ZGA genes
# Assay: RNA-seq of late 8-cell human SCNT embryos with or without KDM4A mRNA injection (ZGA of RRRs, KDM4A-responsive genes)
# Format: cell-based
# Settings: KDM4A SCNT 8-cell embryos
# Excerpt: A sliding window (size 20 kb, step size 10 kb) was used to assess the genome-wide expression level of 4-cell and 8-cell human embryos. For each window, the expression level was quantified with normalized RPM (reads per millions of uniquely mapped reads). […] These activated regions were classed into three groups based on their expression differences in human SCNT and IVF 8-cell embryos.
# The SCNT embryos used for ZGA analysis were generated using oocytes donated by a single healthy person (#64) and dermal fibroblast cells from an AMD patient (DFB-8). SCNT and IVF embryos were cultured up to late 8-cell stage, when the compaction of blastomeres is initiated, then they were treated briefly with acid Tyrode solution to remove zona pellucida. To prepare for the 8-cell SCNT embryo, oocytes from a single oocyte donor, and skin fibroblast cells from a single somatic nuclear donor were used. All the procedures are the same as described in the “Human SCNT procedure and KMD4A mRNA injection” section. Only embryos that reached the late 8-cell stage synchronically 74 hours post activation were collected and used for this experiment.
# For preparation of the control IVF embryos, several donated early 8-cell stage IVF embryos were thawed and cultured for 5-7 hours to allow them to reach late 8-cell stage before being processed. After removal of the zona pellucida, the denuded embryos were washed 3 times in PBS, loaded into RNAse and DNAse free PCR tubes, spin downed, and snap frozen in liquid nitrogen. Then, they were kept at −80° C. until use. As controls, dermal fibroblast cells of somatic nuclear donors were also prepared. Those fibroblast cells were cultured in a 25 cm^2 flask in DMEM 10% FBS, and approximately 10,000 cells/donor were collected, snap frozen, and stored at −80° C. until use.
# Five 8-cell embryos for each group were directly lysed and used for cDNA synthesis using SMART-Seq v4 Ultra Low Input RNA Kit (Clontech). For MEF donor, 10 ng total RNA was used for cDNA synthesis using SMART-Seq v4 Ultra Low Input RNA Kit. After amplification, the cDNA samples were fragmented using Covaris sonicator M220 to an average size of 150 bp (Covaris). Sequencing libraries were made with the fragmented DNA using NEBNext Ultra DNA Library Prep Kit for Illumina according to manufacturer's instruction (New England Biolabs) with different barcodes. For each RNA-seq analysis of hESCs, 1 μg total RNA was used for mRNA purification. Barcoded RNA-seq libraries were generated using NEBNext Ultra Directional RNA Library Prep Kit for Illumina (New England Biolabs). Single end 50 bp sequencing was performed on a HiSeq 2500 sequencer (Illumina). Sequencing reads were mapped to the human genome (hg19) with Tophat2. All programs were performed with default settings (unless otherwise specified). At least 22 million uniquely mapped reads were obtained for each sequencing library, and subsequently assembled into transcripts guided by the reference annotation (Refseq gene models) with Cufflinks v2.0.2. Expression level of each gene was quantified with normalized FPKM (fragments per kilobase of exon per million mapped fragments). Statistical analyses were performed with R (available at: “www.r-project.org/”). Independent 2 group Wilcoxon rank sum tests were used to compare distributions using the wilcox.test function in R. Pearson's r coefficient was calculated using the cor function with default parameters. The hierarchical clustering analysis of the global gene expression pattern in different samples was carried out using heatmap.2 function (gplots package) in R.
substance,measurement,value
"KDM4A mRNA: in vitro transcribed mRNA of full length human KDM4A/JHDM3A cDNA, an H3K9me3 demethylase (SEQ ID NO: 1)",NOC4L Expression level (FPKM),0.61 FPKM
same,NOP58 Expression level (FPKM),55.54 FPKM
same,NUDT9 Expression level (FPKM),1.35 FPKM
same,PAGE5 Expression level (FPKM),1.86 FPKM
same,PDCD11 Expression level (FPKM),1.88 FPKM
same,PDE4DIP Expression level (FPKM),4.04 FPKM
same,PHOSPHO1 Expression level (FPKM),0.23 FPKM
same,PIK3R4 Expression level (FPKM),1.31 FPKM
same,PLBD1 Expression level (FPKM),0.74 FPKM
same,PLD2 Expression level (FPKM),1 FPKM
same,PLVAP Expression level (FPKM),1.63 FPKM
same,POLR3K Expression level (FPKM),109.26 FPKM
same,POTEM Expression level (FPKM),1.96 FPKM
same,PPM1N Expression level (FPKM),0.89 FPKM
same,PPP2CB Expression level (FPKM),1.07 FPKM
same,PRAMEF3 Expression level (FPKM),1.48 FPKM
same,PRAMEF4 Expression level (FPKM),18.29 FPKM
same,PRAMEF6 Expression level (FPKM),14.29 FPKM
same,PRAMEF10 Expression level (FPKM),49.42 FPKM
same,PRAMEF11 Expression level (FPKM),18.18 FPKM
same,PRAMEF17 Expression level (FPKM),0.66 FPKM
same,PRPF39 Expression level (FPKM),3.48 FPKM
same,PTPN22 Expression level (FPKM),1.15 FPKM
same,RAB9A Expression level (FPKM),1.37 FPKM
same,RASA2 Expression level (FPKM),1 FPKM
same,RFK Expression level (FPKM),2.86 FPKM
same,RNU11 Expression level (FPKM),3.75 FPKM
same,RP2 Expression level (FPKM),1.31 FPKM
same,RPF2 Expression level (FPKM),102.42 FPKM
same,RPS6KB2 Expression level (FPKM),0.32 FPKM
same,SAMD8 Expression level (FPKM),4.34 FPKM
same,SCO1 Expression level (FPKM),1.99 FPKM
same,SEPX1 Expression level (FPKM),2.34 FPKM
same,SERTAD1 Expression level (FPKM),7.03 FPKM
same,SFTPD Expression level (FPKM),0.61 FPKM
same,SGCG Expression level (FPKM),1.03 FPKM
same,SGPP1 Expression level (FPKM),1.39 FPKM
same,SHFM1 Expression level (FPKM),21.11 FPKM
same,SIAH1 Expression level (FPKM),88.93 FPKM
same,SNAPC1 Expression level (FPKM),17.7 FPKM
same,SNAR-C3 Expression level (FPKM),98.14 FPKM
same,SNAR-E Expression level (FPKM),2468.68 FPKM
same,SNHG9 Expression level (FPKM),63.59 FPKM
same,SNHG12 Expression level (FPKM),7.02 FPKM
same,SPINK7 Expression level (FPKM),12.41 FPKM
same,SRA1 Expression level (FPKM),5.51 FPKM
same,SSX3 Expression level (FPKM),5.71 FPKM
same,STAG3L2 Expression level (FPKM),2.72 FPKM
same,STAG3L4 Expression level (FPKM),2.35 FPKM
same,STAP2 Expression level (FPKM),0.83 FPKM
same,SUZ12P Expression level (FPKM),1.31 FPKM
same,TAC1 Expression level (FPKM),5.72 FPKM
same,TCEANC2 Expression level (FPKM),2.9 FPKM
same,TCN2 Expression level (FPKM),0.69 FPKM
same,TEN1 Expression level (FPKM),3.43 FPKM
same,THOC5 Expression level (FPKM),5.02 FPKM
same,TIMM10 Expression level (FPKM),25.23 FPKM
same,TMEM41B Expression level (FPKM),19.19 FPKM
same,TMEM92 Expression level (FPKM),0.97 FPKM
same,TMEM159 Expression level (FPKM),8.54 FPKM
same,TRIM39-RPP21 Expression level (FPKM),1.26 FPKM
same,TRIML2 Expression level (FPKM),1.8 FPKM
same,TSEN34 Expression level (FPKM),1.75 FPKM
same,TTC27 Expression level (FPKM),0.56 FPKM
same,TTC28-AS1 Expression level (FPKM),7.79 FPKM
same,UBTFL1 Expression level (FPKM),120.09 FPKM
same,UTP3 Expression level (FPKM),2.98 FPKM
same,UTP23 Expression level (FPKM),3.29 FPKM
same,UTS2 Expression level (FPKM),1.14 FPKM
same,VAMP1 Expression level (FPKM),13.05 FPKM
same,VCX2 Expression level (FPKM),0.24 FPKM
same,VCX Expression level (FPKM),0.23 FPKM
same,VPS54 Expression level (FPKM),3.79 FPKM
same,WDR77 Expression level (FPKM),3.45 FPKM
same,XAGE5 Expression level (FPKM),0.11 FPKM
same,ZCCHC10 Expression level (FPKM),15.69 FPKM
same,ZFYVE19 Expression level (FPKM),4.05 FPKM
same,ZNF92 Expression level (FPKM),21.84 FPKM
same,ZNF100 Expression level (FPKM),3.76 FPKM
same,ZNF174 Expression level (FPKM),1.13 FPKM
same,ZNF208 Expression level (FPKM),1.74 FPKM
same,ZNF254 Expression level (FPKM),1.32 FPKM
same,ZNF273 Expression level (FPKM),4.43 FPKM
same,ZNF280A Expression level (FPKM),84.94 FPKM
same,ZNF326 Expression level (FPKM),2.8 FPKM
same,ZNF345 Expression level (FPKM),1.41 FPKM
same,ZNF486 Expression level (FPKM),2.77 FPKM
same,ZNF487P Expression level (FPKM),3.02 FPKM
same,ZNF625-ZNF20 Expression level (FPKM),1.95 FPKM
same,ZNF625 Expression level (FPKM),1 FPKM
same,ZNF669 Expression level (FPKM),8.14 FPKM
same,ZNF675 Expression level (FPKM),15.04 FPKM
same,ZNF676 Expression level (FPKM),4.61 FPKM
same,ZNF679 Expression level (FPKM),86.94 FPKM
same,ZNF680 Expression level (FPKM),5.58 FPKM
same,ZNF684 Expression level (FPKM),7.21 FPKM
same,ZNF700 Expression level (FPKM),1.86 FPKM
same,ZNF724P Expression level (FPKM),13.16 FPKM
same,ZNF729 Expression level (FPKM),0.94 FPKM
same,ZNF735 Expression level (FPKM),33.19 FPKM
same,ZNF789 Expression level (FPKM),5.2 FPKM
same,ZNF791 Expression level (FPKM),3.79 FPKM
same,ZNF826P Expression level (FPKM),2.07 FPKM
same,ZNHIT6 Expression level (FPKM),3.88 FPKM
